Source: patent US20200270309A1, “MALEIMIDE GROUP-MODIFIED ANGIOGENESIS INHIBITOR HM-1 AND USE THEREOF” (NANJING ANJI BIOLOGICAL TECHNOLOGY CO., LTD, priority 2017, published 2020)
Marks after values point to notes of the source that are not given here. Peptide text beside a SMILES is read from it. * marks the point of attachment. X58 = O=C1C=CC(=O)N1c1cccc(CCCCCCCCCCCC(=O)*)c1; X59 = O=C1C=CC(=O)N1c1cccc(CCCCCCCCC(=O)*)c1; X66 = O=C1C=CC(=O)N1c1cccc(CCCCCCCC(=O)*)c1; X75 = O=C1C=CC(=O)N1c1cccc(CC(=O)*)c1

What was measured:
[1] = system: choroidal neovascularization; assay: Choroidal neovascularization in rats (laser photocoagulation, FFA); assay type: in vivo; settings: BN rats
Method in brief: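 Male BN rats aged 6-8 weeks were given 8 krypton-laser spots around the optic disc (647.1 nm, 350 mW, 50 μm, 0.05 s). Once the model was confirmed, groups of 5 got daily intravitreal compound at 0.05 μM or saline for 1 week. FFA followed at 3, 7, 14 and 28 days after dosing.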

[2] = Half-lives and pharmacokinetic parameters of polypeptides vs HM-1; settings: in vivo; for half-life: T1/2β (half-life)
[3] = system: retinal neovascularization (OIR model); assay: Retinal vessels in OIR mice; assay type: in vivo, C57/B16 mice; settings: for Area of neovascular plexus (mm^2): dose 0.05 μM in the vitreous chamber on day 13, retinal vessels evaluated on day 17; for Inhibition rate (%): dose 0.05 μM in the vitreous chamber on day 13, retinal vessels evaluated on day 17, vs negative control
Method in brief: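 C57/B16 pups were held in 75% oxygen from postnatal day 7 to 12, then returned to room air. On day 13 they received intravitreal saline or compound. On day 17 perfused vessels were labelled by Texas red tomato agglutinin injected into the left ventricle (5 min circulation) and retinal vasculature assessed.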

adjuvant arthritis = assay: Rat adjuvant arthritis (AA) animal model; assay type: in vivo, SD rats; settings: 4.0 mg/kg; for Clinical score: intravenous in the tail once every five days from day 10, four paws scored 0-4, max 16, mean±SD; for Joint swelling degree / Left and right paw swelling degree: intravenous in the tail once every five days from day 10, mean±SD
[4] = system: carrageenan-induced toe swelling; assay: Carrageenan-induced toe swelling in rats; assay type: in vivo; settings: SD rats; for Swelling degree 1 h: 1 h after carrageenan; for Swelling degree 3 h: 3 h after carrageenan; for Swelling degree 5 h: 5 h after carrageenan; for Swelling degree 7 h: 7 h after carrageenan
Method in brief: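 Paw swelling, in mL, is the post-inflammation minus pre-inflammation volume of the right hind foot, read as overflow liquid when immersed to a pen-marked joint. Treatment was daily injection over 3 d; model group received saline of the same volume.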

splenic lymphocytes = assay: Proliferation of splenic lymphocytes in mice (ConA, MTT); assay type: cell-based; settings: ConA-stimulated mouse splenic lymphocytes, 48 h
Method in brief: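 Proliferation read as OD 570 nm after 4 h MTT and DMSO solubilisation, five parallel wells. Before that, ConA-stimulated splenic lymphocytes from mice, 5×10^6 cells/mL in 10% calf serum RPMI 1640, were cultured 48 h at 37° C. with different peptide concentrations; controls were blank, ConA alone and dexamethasone.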

[5] = day 3 after administration, total light spot number was 297, 0.05 μM in the vitreous chamber once a day for 1 week
[6] = day 7 after administration, total light spot number was 186, 0.05 μM in the vitreous chamber once a day for 1 week
[7] = day 14 after administration, total light spot number was 137, 0.05 μM in the vitreous chamber once a day for 1 week
[8] = day 28 after administration, total light spot number was 69, 0.05 μM in the vitreous chamber once a day for 1 week

AUC(0-inf) [2] [ng·h/mL] | MRT inf [2] [h] | clearance [2] [mL/min/kg] | half-life [2] [h] | SMILES | CNV Incidence (%) [1, 5] [%] | Leakage Light spot number [1, 5] | CNV Incidence (%) [1, 6] [%] | Leakage Light spot number [1, 6] | CNV Incidence (%) [1, 7] [%] | Leakage Light spot number [1, 7] | CNV Incidence (%) [1, 8] [%] | Leakage Light spot number [1, 8] | Area of neovascular plexus (mm^2) [3] [mm^2] | Inhibition rate (%) [3] [%**] | Clinical score (adjuvant arthritis) | Joint swelling degree (adjuvant arthritis) [mm] | Left and right paw swelling degree (adjuvant arthritis) [mm] | Swelling degree 1 h ([4]; 2.0 mg/kg once a day for 3 d) [mg] | Swelling degree 3 h ([4]; 2.0 mg/kg once a day for 3 d) [mg] | Swelling degree 5 h ([4]; 2.0 mg/kg once a day for 3 d) [mg] | further results
32000 ± 8090 | 57.1 ± 14.2 | 0.522 | 39.6 ± 0.31 | C[C@H](NC(=O)CNC(=O)[C@H](CCCNC(=N)N)NC(=O)CCCCCCCCCCCc1cccc(N2C(=O)C=CC2=O)c1)C(=O)N[C@@H](CC(=O)O)C(=O)N[C@@H](CCCNC(=N)N)C(=O)N[C@@H](C)C(=O)NCC(=O)NCC(=O)NCC(=O)NCC(=O)N[C@@H](CCCNC(=N)N)C(=O)NCC(=O)N[C@@H](CC(=O)O)C(=O)O [X35] (X58-RGADRAGGGGRGD-OH) | 52.19 | 155 | 47.85 | 89 | 46.72 | 64 | 44.93 | 31 | 0.101 ± 0.005 | 52.36 | 5.83 ± 1.07 | 0.85 ± 0.13 | 3.78 ± 0.56 | 0.25 ± 0.11 | 0.38 ± 0.16 | 0.38 ± 0.19 | Swelling degree 7 h ([4]; 2.0 mg/kg once a day for 3 d): 0.33 ± 0.15 mg; Swelling degree 1 h ([4]; 4.0 mg/kg once a day for 3 d): 0.23 ± 0.11 mg; Swelling degree 3 h ([4]; 4.0 mg/kg once a day for 3 d): 0.36 ± 0.16 mg; Swelling degree 5 h ([4]; 4.0 mg/kg once a day for 3 d): 0.44 ± 0.14 mg; Swelling degree 7 h ([4]; 4.0 mg/kg once a day for 3 d): 0.32 ± 0.12 mg; A570 nm/A630 nm (splenic lymphocytes; polypeptide dose 0.05 μM): 0.6122 ± 0.1219; Inhibition rate (%) (splenic lymphocytes; polypeptide dose 0.05 μM): 9.36%; A570 nm/A630 nm (splenic lymphocytes; polypeptide dose 0.1 μM): 0.5261 ± 0.0617; Inhibition rate (%) (splenic lymphocytes; polypeptide dose 0.1 μM): 22.11%; A570 nm/A630 nm (splenic lymphocytes; polypeptide dose 0.2 μM): 0.4415 ± 0.0616; Inhibition rate (%) (splenic lymphocytes; polypeptide dose 0.2 μM): 34.63%
24600 ± 7530 | 44.1 ± 10.7 | 0.677 | 30.6 ± 0.32 | C[C@H](NC(=O)CNC(=O)[C@H](CCCNC(=N)N)NC(=O)Cc1cccc(N2C(=O)C=CC2=O)c1)C(=O)N[C@@H](CC(=O)O)C(=O)N[C@@H](CCCNC(=N)N)C(=O)N[C@@H](C)C(=O)NCC(=O)NCC(=O)NCC(=O)NCC(=O)N[C@@H](CCCNC(=N)N)C(=O)NCC(=O)N[C@@H](CC(=O)O)C(=O)O [X25] (X75-RGADRAGGGGRGD-OH) | 51.85 | 154 | 47.31 | 88 | 43.07 | 59 | 44.93 | 31 | 0.096 ± 0.012 | 54.72 | 5.72 ± 1.11 | 0.71 ± 0.16 | 3.76 ± 0.09 | 0.29 ± 0.17 | 0.38 ± 0.12 | 0.46 ± 0.18 | Swelling degree 7 h ([4]; 2.0 mg/kg once a day for 3 d): 0.34 ± 0.13 mg; Swelling degree 1 h ([4]; 4.0 mg/kg once a day for 3 d): 0.27 ± 0.15 mg; Swelling degree 3 h ([4]; 4.0 mg/kg once a day for 3 d): 0.36 ± 0.19 mg; Swelling degree 5 h ([4]; 4.0 mg/kg once a day for 3 d): 0.44 ± 0.18 mg; Swelling degree 7 h ([4]; 4.0 mg/kg once a day for 3 d): 0.33 ± 0.12 mg; A570 nm/A630 nm (splenic lymphocytes; polypeptide dose 0.05 μM): 0.5838 ± 0.0861; Inhibition rate (%) (splenic lymphocytes; polypeptide dose 0.05 μM): 13.56%; A570 nm/A630 nm (splenic lymphocytes; polypeptide dose 0.1 μM): 0.5673 ± 0.0906; Inhibition rate (%) (splenic lymphocytes; polypeptide dose 0.1 μM): 16.01%; A570 nm/A630 nm (splenic lymphocytes; polypeptide dose 0.2 μM): 0.4576 ± 0.1221; Inhibition rate (%) (splenic lymphocytes; polypeptide dose 0.2 μM): 32.25%
30900 ± 7750 | 55.3 ± 11.8 | 0.54 | 38.33 ± 0.31 | C[C@H](NC(=O)CNC(=O)[C@H](CCCNC(=N)N)NC(=O)CCCCCCCCc1cccc(N2C(=O)C=CC2=O)c1)C(=O)N[C@@H](CC(=O)O)C(=O)N[C@@H](CCCNC(=N)N)C(=O)N[C@@H](C)C(=O)NCC(=O)NCC(=O)NCC(=O)NCC(=O)N[C@@H](CCCNC(=N)N)C(=O)NCC(=O)N[C@@H](CC(=O)O)C(=O)O [X32] (X59-RGADRAGGGGRGD-OH) | 54.21 | 161 | 46.24 | 86 | 43.07 | 59 | 42.03 | 29 | 0.096 ± 0.001 | 54.72 | 5.81 ± 1.14 | 0.81 ± 0.18 | 3.91 ± 0.64 | 0.25 ± 0.18 | 0.35 ± 0.13 | 0.36 ± 0.12 | Swelling degree 7 h ([4]; 2.0 mg/kg once a day for 3 d): 0.31 ± 0.17 mg; Swelling degree 1 h ([4]; 4.0 mg/kg once a day for 3 d): 0.24 ± 0.14 mg; Swelling degree 3 h ([4]; 4.0 mg/kg once a day for 3 d): 0.33 ± 0.17 mg; Swelling degree 5 h ([4]; 4.0 mg/kg once a day for 3 d): 0.41 ± 0.15 mg; Swelling degree 7 h ([4]; 4.0 mg/kg once a day for 3 d): 0.35 ± 0.12 mg; A570 nm/A630 nm (splenic lymphocytes; polypeptide dose 0.05 μM): 0.6117 ± 0.0672; Inhibition rate (%) (splenic lymphocytes; polypeptide dose 0.05 μM): 9.43%; A570 nm/A630 nm (splenic lymphocytes; polypeptide dose 0.1 μM): 0.5954 ± 0.0678; Inhibition rate (%) (splenic lymphocytes; polypeptide dose 0.1 μM): 11.84%; A570 nm/A630 nm (splenic lymphocytes; polypeptide dose 0.2 μM): 0.5428 ± 0.0408; Inhibition rate (%) (splenic lymphocytes; polypeptide dose 0.2 μM): 19.63%

SMILES | AUC(0-inf) [2] [ng·h/mL] | MRT inf [2] [h] | clearance [2] [mL/min/kg] | half-life [2] [h] | CNV Incidence (%) [1, 5] [%] | Leakage Light spot number [1, 5] | CNV Incidence (%) [1, 6] [%] | Leakage Light spot number [1, 6] | CNV Incidence (%) [1, 7] [%] | Leakage Light spot number [1, 7] | CNV Incidence (%) [1, 8] [%] | Leakage Light spot number [1, 8] | Area of neovascular plexus (mm^2) [3] [mm^2] | Inhibition rate (%) [3] [%**] | Clinical score (adjuvant arthritis) | Joint swelling degree (adjuvant arthritis) [mm] | Left and right paw swelling degree (adjuvant arthritis) [mm] | Swelling degree 1 h ([4]; 2.0 mg/kg once a day for 3 d) [mg] | Swelling degree 3 h ([4]; 2.0 mg/kg once a day for 3 d) [mg] | Swelling degree 5 h ([4]; 2.0 mg/kg once a day for 3 d) [mg] | further results
C[C@H](NC(=O)CNC(=O)[C@H](CCCNC(=N)N)NC(=O)CCCCCCCc1cccc(N2C(=O)C=CC2=O)c1)C(=O)N[C@@H](CC(=O)O)C(=O)N[C@@H](CCCNC(=N)N)C(=O)N[C@@H](C)C(=O)NCC(=O)NCC(=O)NCC(=O)NCC(=O)N[C@@H](CCCNC(=N)N)C(=O)NCC(=O)N[C@@H](CC(=O)O)C(=O)O [X31] (X66-RGADRAGGGGRGD-OH) | 28600 ± 6960 | 51.3 ± 11.3 | 0.582 | 35.58 ± 0.31 | 53.54 | 159 | 46.77 | 87 | 41.61 | 57 | 44.93 | 31 | 0.101 ± 0.013 | 52.83 | 5.74 ± 1.12 | 0.84 ± 0.12 | 3.72 ± 0.98 | 0.23 ± 0.18 | 0.37 ± 0.12 | 0.38 ± 0.16 | Swelling degree 7 h ([4]; 2.0 mg/kg once a day for 3 d): 0.33 ± 0.11 mg; Swelling degree 1 h ([4]; 4.0 mg/kg once a day for 3 d): 0.22 ± 0.12 mg; Swelling degree 3 h ([4]; 4.0 mg/kg once a day for 3 d): 0.36 ± 0.16 mg; Swelling degree 5 h ([4]; 4.0 mg/kg once a day for 3 d): 0.38 ± 0.15 mg; Swelling degree 7 h ([4]; 4.0 mg/kg once a day for 3 d): 0.35 ± 0.14 mg; A570 nm/A630 nm (splenic lymphocytes; polypeptide dose 0.05 μM): 0.6142 ± 0.0512; Inhibition rate (%) (splenic lymphocytes; polypeptide dose 0.05 μM): 9.06%; A570 nm/A630 nm (splenic lymphocytes; polypeptide dose 0.1 μM): 0.6134 ± 0.1148; Inhibition rate (%) (splenic lymphocytes; polypeptide dose 0.1 μM): 9.18%; A570 nm/A630 nm (splenic lymphocytes; polypeptide dose 0.2 μM): 0.5450 ± 0.0838; Inhibition rate (%) (splenic lymphocytes; polypeptide dose 0.2 μM): 19.31%
